Experimental data as given in ChEMBL document CHEMBL1132702, “5'-N-substituted carboxamidoadenosines as agonists for adenosine receptors” (J Med Chem, 1999).

How the values were obtained:
Adenosine receptor A2b = molecular target: T1, Adenosine receptor A2b (Homo sapiens, UniProt P29275); test: Effective concentration for cAMP production in CHO-KI cells stably transfected with human adenosine A2B receptor cDNA
T1 sequence (P29275 whole entry): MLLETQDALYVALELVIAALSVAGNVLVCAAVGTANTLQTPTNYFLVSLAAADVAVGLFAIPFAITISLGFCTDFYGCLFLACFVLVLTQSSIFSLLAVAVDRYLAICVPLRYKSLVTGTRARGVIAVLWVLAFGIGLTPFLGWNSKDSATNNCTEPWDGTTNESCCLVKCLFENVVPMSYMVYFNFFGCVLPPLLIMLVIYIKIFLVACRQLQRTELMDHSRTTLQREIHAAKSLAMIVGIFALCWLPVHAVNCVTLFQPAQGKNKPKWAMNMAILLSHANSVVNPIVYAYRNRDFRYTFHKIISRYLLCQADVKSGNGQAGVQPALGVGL

Adenosine receptor A1 [1] = molecular target: T2, Adenosine receptor A1 (Rattus norvegicus, UniProt P25099); test: Ability to displace radioligand [3H]- DPCPX from adenosine A1 receptor on rat cortical membrane in the presence of 1 mM of GTP
T2 sequence (P25099 whole entry): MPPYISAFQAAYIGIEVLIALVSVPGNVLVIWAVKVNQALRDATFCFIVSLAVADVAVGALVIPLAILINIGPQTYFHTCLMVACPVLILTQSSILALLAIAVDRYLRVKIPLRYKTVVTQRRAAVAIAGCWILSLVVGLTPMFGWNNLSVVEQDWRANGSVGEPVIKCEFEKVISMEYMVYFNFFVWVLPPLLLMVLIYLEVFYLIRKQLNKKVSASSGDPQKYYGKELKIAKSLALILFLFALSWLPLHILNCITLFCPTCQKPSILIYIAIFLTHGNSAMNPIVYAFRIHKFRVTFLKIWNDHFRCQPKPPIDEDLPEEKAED

Adenosine receptor A3 = molecular target: T3, Adenosine receptor A3 (Homo sapiens, UniProt P0DMS8); test: Ability to displace radioligand [125I]AB-MECA from membrane of HEK 293 cells stably transfected with human adenosine A3 receptor cDNA; type: cell membranes, HEK293
T3 sequence (P0DMS8 whole entry): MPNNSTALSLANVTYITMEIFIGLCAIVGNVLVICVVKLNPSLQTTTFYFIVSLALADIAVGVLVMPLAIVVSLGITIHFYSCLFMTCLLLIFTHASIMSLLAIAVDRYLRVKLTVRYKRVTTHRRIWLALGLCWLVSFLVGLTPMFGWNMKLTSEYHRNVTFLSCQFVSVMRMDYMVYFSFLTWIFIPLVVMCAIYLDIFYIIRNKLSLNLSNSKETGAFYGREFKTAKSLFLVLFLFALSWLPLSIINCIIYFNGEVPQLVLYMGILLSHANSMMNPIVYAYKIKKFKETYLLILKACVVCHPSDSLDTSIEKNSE

[2] = GTP shift was determined
Adenosine receptor A1 [3] = molecular target: T2, Adenosine receptor A1
Description: Ability to displace radioligand [3H]- DPCPX from adenosine A1 receptor on rat cortical membrane in the absence of GTP

Adenosine receptor A2a = Adenosine receptor A2a (Rattus norvegicus, UniProt P30543)
[4] = molecular target: T4, Adenosine receptor A2b (Homo sapiens) (UniProt P29275); test: Effective concentration for cAMP production in CHO-KI cells expressing human adenosine A2B receptor at 100 uM; type: functional, cell-based
T4 sequence (whole entry): T1 sequence (P29275 whole entry)

Adenosine receptor A2a, sequence (P30543 whole entry): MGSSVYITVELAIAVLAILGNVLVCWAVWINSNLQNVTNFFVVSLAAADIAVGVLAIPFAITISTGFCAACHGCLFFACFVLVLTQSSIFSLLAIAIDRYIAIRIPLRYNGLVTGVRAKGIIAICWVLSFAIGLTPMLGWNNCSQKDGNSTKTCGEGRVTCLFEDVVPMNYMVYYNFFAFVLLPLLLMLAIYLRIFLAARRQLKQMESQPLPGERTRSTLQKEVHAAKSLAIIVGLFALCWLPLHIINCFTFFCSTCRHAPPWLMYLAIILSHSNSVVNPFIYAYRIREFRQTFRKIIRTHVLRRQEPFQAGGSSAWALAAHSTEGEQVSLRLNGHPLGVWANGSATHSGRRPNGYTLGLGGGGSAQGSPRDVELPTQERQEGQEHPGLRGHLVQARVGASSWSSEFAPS

| Compound | EC50 (Adenosine receptor A2b) | Ki (Adenosine receptor A1 [1]) | Ki (Adenosine receptor A3) | GTP shift [2] | Ki (Adenosine receptor A1 [3]) | Ki (Adenosine receptor A2a) | Emax [4] |
| --- | --- | --- | --- | --- | --- | --- | --- |
| Nc1ncnc2c1ncn2[C@@H]1O[C@H](C(=O)NC2CCC2)[C@@H](O)[C@H]1O | 33 µM | – | 0.023 µM | – | – | 0.049 µM | – |
| Nc1ncnc2c1ncn2[C@@H]1O[C@H](C(=O)NC2CC2)[C@@H](O)[C@H]1O | 5.3 µM | – | 0.108 µM | – | – | – | – |
| Nc1ncnc2c1ncn2[C@@H]1O[C@H](C(=O)NC2CCCC2)[C@@H](O)[C@H]1O | 54 µM | 4.9 µM | 0.032 µM | 6.4 | 0.77 µM | 0.61 µM | – |
| CNC(=O)[C@H]1O[C@@H](n2cnc3c(NCc4cccc(I)c4)ncnc32)[C@H](O)[C@@H]1O [IB-MECA] | 11 µM | – | – | – | – | – | – |
| Nc1ncnc2c1ncn2[C@@H]1O[C@H](C(=O)NCCCl)[C@@H](O)[C@H]1O | 32 µM | 0.89 µM | 0.322 µM | 3.6 | 0.248 µM | 0.41 µM | – |
| CC(C)(C)NC(=O)[C@H]1O[C@@H](n2cnc3c(N)ncnc32)[C@H](O)[C@@H]1O | – | 6.95 µM | 8.5 µM | 2.6 | 2.73 µM | 1.34 µM | 10% |

More lines, now with the values ahead:

| EC50 (Adenosine receptor A2b) | Ki (Adenosine receptor A1 [1]) | Ki (Adenosine receptor A3) | GTP shift [2] | Ki (Adenosine receptor A1 [3]) | Ki (Adenosine receptor A2a) | Emax [4] | Compound |
| --- | --- | --- | --- | --- | --- | --- | --- |
| 45 µM | 1.96 µM | 0.0853 µM | 2.4 | 1.62 µM | 0.623 µM | – | CONC(=O)[C@H]1O[C@@H](n2cnc3c(N)ncnc32)[C@H](O)[C@@H]1O |
| 16 µM | 0.478 µM | 0.569 µM | 3.4 | 0.141 µM | 0.13 µM | – | CCNC(=S)[C@H]1O[C@@H](n2cnc3c(N)ncnc32)[C@H](O)[C@@H]1O |
| 37 µM | 0.804 µM | 0.211 µM | 3.1 | 0.257 µM | 0.16 µM | – | CC(C)NC(=O)[C@H]1OC(n2cnc3c(N)ncnc32)[C@H](O)[C@@H]1O (some centres not stated) |
| 13 µM | 0.459 µM | 2.28 µM | 3.4 | 0.137 µM | 0.13 µM | – | Nc1ncnc2c1ncn2[C@@H]1O[C@H](C(=S)NC2CC2)[C@@H](O)[C@H]1O |
| 45 µM | 6.84 µM | 0.0064 µM | – | 1.08 µM | – | – | CNC(=O)[C@H]1O[C@@H](n2cnc3c(N)ncnc32)[C@H](O)[C@@H]1O |
